Assay [1] has as its system synaptosomes from the striatal area of rat brain. Nature of the assay: [3H]-Dopamine release from rat striatal synaptosomes. Type of assay: biochemical, Sprague-Dawley rats. To be noted: Percent release relative to (S)(-)nicotine at equal concentration, 0.2 ml of a 10 μM solution of ligand. The protocol: Dopamine release was measured by preparing synaptosomes from the striatal area of rat brain obtained from Sprague-Dawley rats generally according to the procedures set forth by Nagy, et al., J. Neurochem., Vol. 43, pp. 1114-1123 (1984). Striata from 4 rats were homogenized in 2 ml of 0.32M sucrose buffered with 5 mM HEPES (pH 7.5), using a glass-teflon tissue grinder. The homogenate was diluted to 5 ml with additional homogenization solution and centrifuged at 1000×g for 10 min. This procedure was repeated on the new pellet and the resulting supernatant was centrifuged at 12,000×g for 20 min. […] Using this method, 30 to 90 percent of the dopamine was taken up into the synaptosomes, as determined by scintillation counting following filtration through glass fiber filters soaked with 0.5 percent polyethyleneimine. […] After the addition of a 0.2 ml of a 10 μM solution of ligand, the perfusate was collected into scintillation vials at 1 min. intervals and the dopamine released was quantified by scintillation counting. Peaks of radioactivity released above background were summed and the average basal release during that time was subtracted from the total. Release was expressed as a percentage of release obtained with an equal concentration of (S)-(-)-nicotine.

For assay [2], the target named is high affinity nicotinic receptors. Description: Inhibition of L-[3H]nicotine binding to mouse brain membrane preparations. Also noted: species or system Mice (DBA strain). The settings on record: mouse brain membranes, 2 hr at 4° C., 10 nM L-[3H]nicotine, Ki calculated from IC50 by the method of Cheng et al. The protocol: Mice (DBA strain) were maintained on a 12 hour light/dark cycle and were allowed free access to water and food supplied by Wayne Lab Blox, Madison, Wis. Animals used in the present studies were 60 to 90 days of age and weighed 20 to 25 g. Brain membrane preparations were obtained from pooled brain tissue of both males and females.
Mice were killed by cervical dislocation. Brains were removed and placed on an ice-cold platform. […] Protein was determined by the method of Lowry, et al., J. Biol. Chem., Vol. 193, pp. 265-275 (1951), using bovine serum albumin as the standard.
The binding of L-[^3 H]nicotine was measured using a modification of the method of Romano, et al., Science, Vol. 210, pp. 647-650 (1980) as described previously by Marks, et al., Mol. Pharmacol., Vol. 30, pp. 427-436 (1986). The binding of L-[^3 H]nicotine was measured using a 2 hr. incubation at 4° C. […] Nonspecific binding was determined by inclusion of 10 μM nonradioactive nicotine in the incubations. The inhibition of L-[^3 H]nicotine binding by test compounds was determined by including one of eight different concentrations of the test compound in the incubation. […] Inhibition constants (Ki values) were calculated from the IC50 values using the method of Cheng, et al., Biochem. Pharmacol., Vol. 22, pp. 3099-3108 (1973). […]

Broadly, the Ki is a dissociation constant, usually derived from enzyme kinetics or from competition with a known ligand. For `O=c1cccc2n1C[C@@H]1CNC[C@H]2C1` [cytisine], the “Dopamine Release” value in assay [1] came to 82%. Also, in assay [2], the Ki was 0.0004 µM.

`CN1CC2CC(C1)c1cccc(=O)n1C2` (stereo not shown) [N-methylcytisine]: in assay [1], the “Dopamine Release” value came to 29%. Further, in assay [2], the inhibitory constant (Ki) is 0.036 µM.

These data come from patent publication US5242916A, “Method for treatment of neurodegenerative diseases” (R. J. Reynolds Tobacco Company, priority 1992, dated 1993).
